Results as given in patent US11673866B2, “Estrogen receptor beta ligands for the prevention and treatment of multiple sclerosis (MS) and other demyelinating, inflammatory and neurodegenerative diseases” (The Board of Trustees of the University of Illinois, priority 2018, dated 2023).
Entries after “also recorded” stand apart in the source; their conditions may differ.

What was measured:
Type in all cases: in vivo, mouse
[1] = system: CD45+ leukocyte, Iba1+ macrophage/microglia, GFAP+ astrocytes; test: CD45, Iba1 and GFAP staining in thoracic spinal cord dorsal column of EAE mice; set-up: key to CNS Cellular Inflammation: CD45 / CNS Cellular Inflammation: Iba1 / CNS Cellular Inflammation: GFAP: ‘+’ indicate marker was significantly (p ≤ 0.05) increased in treatment group relative to vehicle; ‘−’ indicates marker was significantly (p ≤ 0.05) decreased in treatment group relative to vehicle; ○: ‘o’ indicate marker did not change relative to vehicle; details: vs vehicle; for CD45 fluorescence intensity, spinal cord dorsal column / GFAP fluorescence intensity, spinal cord dorsal column: therapeutic treatment (postEAE)
Description: (§1) Immunohistochemistry: Before histological staining, 40-μm free floating sections were thoroughly washed with PBS to remove residual sodium azide (Crawford et al., 2010). Sections were permeabilized with 0.3% Triton X-100 in ix PBS and 15% normal goat serum (NGS). Myelination, gliosis and immune markers were visualized by the following primary antibodies at a concentration of 1:500 unless otherwise noted: chicken anti-myelin basic protein (MBP; polyclonal, EMD Millipore, Darmstadt, Germany), chicken anti-glial fibrillary acidic protein (GFAP; EMD Millipore, Darmstadt), rat anti-cluster of differentiation 45 (CD45; clone 30-F11, BD Biosciences, San Diego, Calif.), mouse anti-ionized calcium-binding adapter molecule 1/allograft inflammatory factor-1 (Iba1/AIF1; clone 20A12.1, EMD Millipore, Darmstadt, Germany), goat anti-CXCL1 (R&D systems; Minneapolis, Minn.) at 1:250 and mouse anti-adenomatous polyposis coli (CC-1; clone CC-1, Genetex, Irvine, Calif.). Secondary staining was performed using polyclonal fluorophore-conjugated antibodies from ThermoFisher Scientific at a concentration of 1:500 unless otherwise specified: goat anti-chicken Alexa Fluor® 555 (AF555), goat anti-rabbit Alexa Fluor® 647 (AF647), donkey anti-chicken IgY Cy3 (EMD Millipore), goat anti-rat IgG AF647, goat anti-rabbit IgG Cy3 (EMD Millipore), goat anti-mouse IgG2b AF647 and rabbit anti-goat AF647. Nuclei were counter stained with 4′,6-Diamidino-2-phenylindole (DAPI, 2 ng/ml; Molecular Probes) for 10 minutes after incubation with secondary antibodies, and sections were mounted on glass slides, allowed to dry, and coverslipped with Fluoromount G mounting medium (Thermo Fisher Scientific) for imaging.
(§2) Confocal Microscopy: Thoracic spinal cord dorsal and ventral column sections, as well as CC were imaged using an Olympus BX61 confocal microscope (Olympus America Inc., Center Valley, Pa.) using a 10× and 40× objective. Z-stack projections were compiled using SlideBook 6 software (Intelligent Imaging Innovations, Inc., Denver, Colo.). Immunostaining was quantified using unbiased stereology (Crawford et al., 2010). All images (RGB) were Confocal converted to grayscale, split, and separated by color channel using imageJ version 2.2.0-rc-46/1.50 g (NIH). To avoid experimenter bias, auto-adjustment of brightness and contrast, as well as threshold of staining signal, was carried out by ImageJ. MBP^+, GFAP^+, CD45^+, Iba1^+, CC1^+, and CXCL1^+, staining intensity was measured as percent area of positive immunoreactivity within the region of interest and intensity of signal determined by ImageJ.
To assess whether IndCl analogues exert similar anti-inflammatory effects, CD45+ leukocyte, ionized calcium-binding adapter molecule 1 (Iba1)+ macrophage/microglia, and GFAP+ astrocytes were assessed in thoracic spinal cord dorsal column sections from normal and EAE mice.

CXCL1 = CXCL1 staining in thoracic ventral column white matter of EAE mice; set-up: key to CNS Chemokines: CXCL1: ‘+’ indicate marker was significantly (p ≤ 0.05) increased in treatment group relative to vehicle; ‘−’ indicates marker was significantly (p ≤ 0.05) decreased in treatment group relative to vehicle; ○: ‘o’ indicate marker did not change relative to vehicle; details: vs vehicle; for CXCL1 staining intensity, thoracic ventral column: therapeutic treatment (postEAE)
Description: as §1, §2
Under inflammatory conditions, such as those generated by MS, astrocytes undergo NF-κB-dependent upregulation of CXCL1, which is thought to recruit OPCs to the site of demyelinating injury (Omari et al., 2006; Xue et al., 2014). Thus, having observed that IndCl raised its production by peripheral leukocytes, CXCL1 expression in thoracic ventral column white matter was next evaluated.

[2] = system: corpus callosum mature OLs (CC1) and MBP; test: CC1 mature OLs and MBP immunoreactivity in callosal white matter tracts of EAE mice; set-up: key to Myelination: OLs / Myelination: MBP: ‘+’ indicate marker was significantly (p ≤ 0.05) increased in treatment group relative to vehicle; ‘−’ indicates marker was significantly (p ≤ 0.05) decreased in treatment group relative to vehicle; ○: ‘o’ indicate marker did not change relative to vehicle; details: vs vehicle; for CC1+ mature OL numbers, corpus callosum / MBP+ staining, corpus callosum: therapeutic treatment (postEAE)
Description: as §1, §2
To test whether IndCl analogues promote similar gains in mature OL numbers and myelination, callosal white matter tracts were assessed for adenomatous polyposis coli (CC1) and MBP immunoreactivity, respectively. Additionally, ultrastructural analysis of the CC was performed by EM imaging to confirm the integrity of axon myelination.

[3] = Post (therapeutic, postEAE) treatment of EAE mice
[4] = Pre (prophylactic, preEAE) E2 treatment of EAE mice

Structure (SMILES)	CNS Cellular Inflammation: CD45 [1, 3]	CNS Cellular Inflammation: GFAP [1, 3]	CNS Cellular Inflammation: Iba1 [1, 3]	CNS Cellular Inflammation: CD45 [1, 4]	CNS Cellular Inflammation: GFAP [1, 4]	CNS Cellular Inflammation: Iba1 [1, 4]	CNS Chemokines: CXCL1 (CXCL1; [3])	CNS Chemokines: CXCL1 (CXCL1; [4])	Myelination: MBP [2, 3]	Myelination: OLs [2, 3]	Myelination: MBP [2, 4]	Myelination: OLs [2, 4]	CD45 fluorescence intensity, spinal cord dorsal column [1]	CXCL1 staining intensity, thoracic ventral column (CXCL1)	CC1+ mature OL numbers, corpus callosum [2]	MBP+ staining, corpus callosum [2]	GFAP fluorescence intensity, spinal cord dorsal column [1]
C[C@]12CC[C@@H]3c4ccc(O)cc4CC[C@H]3[C@@H]1CC[C@@H]2O [E2, 170 estradiol]	−	○	○	−	−	−	+	○	○	+	+	+					
Oc1ccc(-n2nc3ccc(O)cc3c2Cl)cc1 [IndCl, chloroindazole]	−	○	−				+		+	+			similar	significant increase; also recorded: significantly increased	significant increase; also recorded: rescued the loss of CC1+ cells	increased MBP+ staining	
Oc1ccc(-n2nc3ccc(O)cc3c2Cl)c(Cl)c1 [IndCl-o-Cl, 3-chloro-2-(2-chloro-4-hydroxyphenyl)-2H-indazol-5-ol]	−	○	○				+		+	+			similar	significant increase; also recorded: significantly increased	significant increase	increased MBP+ staining	similar
Cc1cc(O)ccc1-n1nc2ccc(O)cc2c1Cl [IndCl-o-Me, 3-chloro-2-(4-hydroxy-2-methylphenyl)-2H-indazol-5-ol]	−	○	○				+		+	+			similar	significant increase; also recorded: significantly increased	significant increase	increased MBP+ staining	similar
